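These data come from cells grown in 96-well plates and exposed to compound for 48 hours at five concentrations. Abbreviation: GI50, concentration required for 50% inhibition of growth.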 The source made the active and inactive calls. Rule as the data show it: active = GI50 up to about 1.1 µM and inactive = higher.
Experiments:
Experiment in all cases: NCI tumour cell line growth inhibition, 48 h
HT-29 = test system: HT-29
HOP-62 = test system: HOP-62
NCI-H522 = test system: NCI-H522
SW-620 = test system: SW-620
NCI-H23 = test system: NCI-H23
U-251 = test system: U-251
SK-MEL-5 = test system: SK-MEL-5
HCT-15 = test system: HCT-15
SF-539 = test system: SF-539
A498 = test system: A498
M14 = test system: M14
SK-MEL-28 = test system: SK-MEL-28
UACC-62 = test system: UACC-62
OVCAR-3 = test system: OVCAR-3
HCT-116 = test system: HCT-116
Malme-3M = test system: Malme-3M
SK-MEL-2 = test system: SK-MEL-2
HCC 2998 = test system: HCC 2998

| Compound | GI50 (HT-29) | GI50 (HOP-62) | GI50 (NCI-H522) | GI50 (SW-620) | GI50 (NCI-H23) | GI50 (U-251) | GI50 (SK-MEL-5) | GI50 (HCT-15) [µM] | GI50 (SF-539) | GI50 (A498) | GI50 (M14) | GI50 (SK-MEL-28) | GI50 (UACC-62) | GI50 (OVCAR-3) | GI50 (HCT-116) | GI50 (Malme-3M) | GI50 (SK-MEL-2) | GI50 (HCC 2998) |
| --- | --- | --- | --- | --- | --- | --- | --- | --- | --- | --- | --- | --- | --- | --- | --- | --- | --- | --- |
| O=S(=O)(c1ccccc1)n1cnc(CCc2ccccc2)n1 | > 100 µM (inactive) | > 100 µM (inactive) | > 100 µM (inactive) | > 100 µM (inactive) | > 100 µM (inactive) | > 100 µM (inactive) | > 100 µM (inactive) | > 100 | > 100 µM (inactive) | > 100 µM (inactive) | > 100 µM (inactive) | > 100 µM (inactive) | > 100 µM (inactive) | > 100 µM (inactive) | > 100 µM (inactive) | > 100 µM (inactive) | > 100 µM (inactive) | – |
| O=C(CC1(O)C(=O)Nc2c(Cl)cc(Cl)cc21)c1ccc([N+](=O)[O-])cc1 (stereo unspecified) | > 58.9 µM (inactive) | > 100 µM (inactive) | 19.4 µM (inactive) | 28.3 µM (inactive) | 29.9 µM (inactive) | 31.7 µM (inactive) | 22.8 µM (inactive) | > 55.3 | > 46.7 µM (inactive) | 29.9 µM (inactive) | > 41.6 µM (inactive) | > 44 µM (inactive) | 28.1 µM (inactive) | 33.7 µM (inactive) | > 42.2 µM (inactive) | > 43.9 µM (inactive) | > 56.4 µM (inactive) | 38 µM (inactive) |
| O=c1cc2ccccc2nn1-c1ccccc1Cl | > 100 µM (inactive) | > 100 µM (inactive) | – | > 100 µM (inactive) | 67.9 µM (inactive) | > 100 µM (inactive) | 69 µM (inactive) | 92.5 | > 100 µM (inactive) | > 100 µM (inactive) | > 100 µM (inactive) | > 100 µM (inactive) | 89.3 µM (inactive) | 81.3 µM (inactive) | 74.5 µM (inactive) | > 100 µM (inactive) | > 100 µM (inactive) | > 100 µM (inactive) |
| O=C(c1ccccc1)c1c(-c2ccccc2)sc2nc3ccccc3nc12 | > 100 µM (inactive) | 34.8 µM (inactive) | > 100 µM (inactive) | > 100 µM (inactive) | > 100 µM (inactive) | > 100 µM (inactive) | 80.9 µM (inactive) | > 100 | 47.9 µM (inactive) | > 100 µM (inactive) | > 100 µM (inactive) | > 100 µM (inactive) | > 100 µM (inactive) | > 100 µM (inactive) | > 100 µM (inactive) | 92.3 µM (inactive) | > 100 µM (inactive) | > 100 µM (inactive) |
| Cc1ccc(C(=O)/C=C/c2cccc([N+](=O)[O-])c2)cc1 | 29.3 µM (inactive) | > 100 µM (inactive) | 62.5 µM (inactive) | 21.6 µM (inactive) | > 74.5 µM (inactive) | 22.2 µM (inactive) | > 100 µM (inactive) | 21.6 | > 58.6 µM (inactive) | 98.2 µM (inactive) | 98.6 µM (inactive) | > 100 µM (inactive) | > 100 µM (inactive) | 54.1 µM (inactive) | 16.6 µM (inactive) | > 100 µM (inactive) | > 100 µM (inactive) | > 54.7 µM (inactive) |
| COC1=CC(=O)c2c(cc3c(c2O)-c2c(OC)cc4cc5c(c(O)c4c2OC(=O)CC(C)(O)C3)C(=O)CC(C)(O)C5)C1=O (stereo unspecified) | 1.96 µM (inactive) | 1.21 µM (inactive) | 1.32 µM (inactive) | 2.37 µM (inactive) | 0.624 µM (active) | 2.77 µM (inactive) | 0.237 µM (active) | 1.95 | 1.57 µM (inactive) | 2.48 µM (inactive) | 1.25 µM (inactive) | 1.32 µM (inactive) | 1.19 µM (inactive) | 0.577 µM (active) | 2.45 µM (inactive) | 1.82 µM (inactive) | 1.28 µM (inactive) | 1.24 µM (inactive) |
| CCCN1C(=O)C/C(=C\C(C)=O)Nc2ccccc21 | > 100 µM (inactive) | > 100 µM (inactive) | > 100 µM (inactive) | > 100 µM (inactive) | > 100 µM (inactive) | > 100 µM (inactive) | > 100 µM (inactive) | > 100 | > 100 µM (inactive) | – | > 100 µM (inactive) | > 100 µM (inactive) | > 100 µM (inactive) | > 100 µM (inactive) | > 100 µM (inactive) | > 100 µM (inactive) | > 100 µM (inactive) | > 100 µM (inactive) |
| COC(=O)C(=O)C(C#N)c1c(Cl)cccc1Cl (stereo unspecified) | > 100 µM (inactive) | > 100 µM (inactive) | > 100 µM (inactive) | > 100 µM (inactive) | > 100 µM (inactive) | – | > 100 µM (inactive) | > 100 | > 100 µM (inactive) | > 100 µM (inactive) | > 100 µM (inactive) | > 100 µM (inactive) | > 100 µM (inactive) | > 100 µM (inactive) | > 100 µM (inactive) | > 100 µM (inactive) | > 100 µM (inactive) | – |
| N#C/N=C1\NCCC(=O)N1CCc1c[nH]c2ccccc12 | > 100 µM (inactive) | > 100 µM (inactive) | – | > 100 µM (inactive) | > 100 µM (inactive) | – | > 100 µM (inactive) | > 100 | > 100 µM (inactive) | – | > 100 µM (inactive) | > 100 µM (inactive) | > 100 µM (inactive) | > 100 µM (inactive) | > 100 µM (inactive) | – | – | > 100 µM (inactive) |
| COc1ccccc1/C=C(\C#N)c1ccccc1 | 29.9 µM (inactive) | 46.5 µM (inactive) | 16.6 µM (inactive) | 23.7 µM (inactive) | 41.5 µM (inactive) | 24.6 µM (inactive) | 16.7 µM (inactive) | 18.4 | 34.8 µM (inactive) | 24.2 µM (inactive) | 32.8 µM (inactive) | 45.5 µM (inactive) | 44.9 µM (inactive) | 19.5 µM (inactive) | 29.1 µM (inactive) | – | 27.2 µM (inactive) | 34.4 µM (inactive) |
| CN(C)CCCCC1CCN(CC(=O)N2c3ccccc3NC(=O)c3ccccc32)CC1 | 61.2 µM (inactive) | > 100 µM (inactive) | > 100 µM (inactive) | > 100 µM (inactive) | > 100 µM (inactive) | – | > 100 µM (inactive) | – | > 100 µM (inactive) | > 100 µM (inactive) | 28.1 µM (inactive) | > 100 µM (inactive) | > 100 µM (inactive) | > 100 µM (inactive) | > 100 µM (inactive) | > 100 µM (inactive) | > 100 µM (inactive) | > 100 µM (inactive) |
| O=C1C2Cc3ccccc3CN2C(=O)N1CCN1CCOCC1 (stereo unspecified) | – | > 100 µM (inactive) | > 100 µM (inactive) | > 100 µM (inactive) | > 100 µM (inactive) | > 100 µM (inactive) | > 100 µM (inactive) | > 100 | > 100 µM (inactive) | > 100 µM (inactive) | > 100 µM (inactive) | > 100 µM (inactive) | > 100 µM (inactive) | > 100 µM (inactive) | – | > 100 µM (inactive) | > 100 µM (inactive) | > 100 µM (inactive) |
| N=C(N)NS(=O)(=O)c1ccc(Nc2c3ccccc3nc3c(C(=O)Nc4ccc(S(N)(=O)=O)cc4)cccc23)cc1 | > 100 µM (inactive) | > 100 µM (inactive) | 15.8 µM (inactive) | > 100 µM (inactive) | > 100 µM (inactive) | 94.2 µM (inactive) | 78.9 µM (inactive) | > 100 | 52.5 µM (inactive) | > 100 µM (inactive) | > 100 µM (inactive) | > 100 µM (inactive) | 93.3 µM (inactive) | 36.8 µM (inactive) | > 100 µM (inactive) | > 100 µM (inactive) | 42.5 µM (inactive) | 55.5 µM (inactive) |
| O=C1/C(=N\O)S(=O)(=O)c2ccccc21 | 92.7 µM (inactive) | > 100 µM (inactive) | > 100 µM (inactive) | > 100 µM (inactive) | – | > 100 µM (inactive) | > 100 µM (inactive) | > 100 | > 100 µM (inactive) | > 100 µM (inactive) | > 100 µM (inactive) | – | > 100 µM (inactive) | – | > 100 µM (inactive) | > 100 µM (inactive) | > 100 µM (inactive) | > 100 µM (inactive) |
| CCC(/C=C/c1ccccc1)=N\N=C(\C=C\c1ccccc1)CC | > 100 µM (inactive) | > 100 µM (inactive) | > 100 µM (inactive) | > 100 µM (inactive) | > 100 µM (inactive) | > 100 µM (inactive) | > 100 µM (inactive) | > 100 | – | > 100 µM (inactive) | > 100 µM (inactive) | > 100 µM (inactive) | > 100 µM (inactive) | > 100 µM (inactive) | > 100 µM (inactive) | > 100 µM (inactive) | > 100 µM (inactive) | > 100 µM (inactive) |
| CN(C)CCCNc1ccnc2c([N+](=O)[O-])cccc12 | 3.56 µM (inactive) | 29.3 µM (inactive) | 17.1 µM (inactive) | 15.2 µM (inactive) | 14.6 µM (inactive) | 30.2 µM (inactive) | – | 22.2 | 20.7 µM (inactive) | – | 29.2 µM (inactive) | 95.7 µM (inactive) | – | 3.56 µM (inactive) | 15.3 µM (inactive) | 2.52 µM (inactive) | > 10 µM (inactive) | 13.6 µM (inactive) |
| O=c1cccccc1NCCCCCCCCNc1cccccc1=O | > 100 µM (inactive) | > 100 µM (inactive) | 75.3 µM (inactive) | > 100 µM (inactive) | 6.78 µM (inactive) | > 100 µM (inactive) | – | > 100 | > 100 µM (inactive) | – | > 100 µM (inactive) | – | > 100 µM (inactive) | 7.59 µM (inactive) | 9.62 µM (inactive) | > 100 µM (inactive) | > 100 µM (inactive) | > 100 µM (inactive) |

— ChEMBL document CHEMBL1201862, “PubChem BioAssay data set” (2004)
